Reference: ChEMBL document CHEMBL5465560, “Selectivity Literature for EUbOPEN Chemogenomic Library” (2024)

How the values were obtained:
[1] = target: T1, Ephrin type-B receptor 2 (Homo sapiens) (UniProt P29323); assay: Selectivity interaction (ProQinase) EUB0000171b EPHB2
T1 sequence (whole entry): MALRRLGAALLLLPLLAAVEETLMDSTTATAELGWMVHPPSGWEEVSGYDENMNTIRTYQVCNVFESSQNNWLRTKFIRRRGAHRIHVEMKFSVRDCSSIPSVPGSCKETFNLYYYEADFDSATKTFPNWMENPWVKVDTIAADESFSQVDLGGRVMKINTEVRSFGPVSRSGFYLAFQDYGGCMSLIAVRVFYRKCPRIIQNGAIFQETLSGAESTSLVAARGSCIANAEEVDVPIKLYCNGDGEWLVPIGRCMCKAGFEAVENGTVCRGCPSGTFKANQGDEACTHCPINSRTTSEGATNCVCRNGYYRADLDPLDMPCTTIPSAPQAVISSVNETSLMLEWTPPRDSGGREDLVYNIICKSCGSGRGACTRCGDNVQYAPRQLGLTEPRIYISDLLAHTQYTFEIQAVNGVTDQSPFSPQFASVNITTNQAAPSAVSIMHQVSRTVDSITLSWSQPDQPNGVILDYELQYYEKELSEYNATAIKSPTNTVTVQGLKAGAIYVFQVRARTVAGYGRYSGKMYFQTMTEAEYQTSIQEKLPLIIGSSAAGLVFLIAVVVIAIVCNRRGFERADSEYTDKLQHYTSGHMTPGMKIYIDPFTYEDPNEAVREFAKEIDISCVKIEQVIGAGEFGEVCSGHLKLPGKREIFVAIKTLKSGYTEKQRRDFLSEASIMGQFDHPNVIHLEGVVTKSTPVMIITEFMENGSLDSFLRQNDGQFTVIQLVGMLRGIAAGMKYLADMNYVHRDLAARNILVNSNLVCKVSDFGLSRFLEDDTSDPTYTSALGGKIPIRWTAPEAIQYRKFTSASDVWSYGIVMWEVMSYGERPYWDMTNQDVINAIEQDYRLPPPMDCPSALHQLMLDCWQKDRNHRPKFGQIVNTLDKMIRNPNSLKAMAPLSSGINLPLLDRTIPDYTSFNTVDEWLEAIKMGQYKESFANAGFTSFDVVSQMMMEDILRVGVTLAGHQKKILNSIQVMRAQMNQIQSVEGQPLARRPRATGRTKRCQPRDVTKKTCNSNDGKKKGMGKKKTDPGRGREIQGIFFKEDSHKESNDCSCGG

[2] = target: T2, Megakaryocyte-associated tyrosine-protein kinase (Homo sapiens) (UniProt P42679); assay: Selectivity interaction (KinomeScan (DiscoverX)) EUB0000666a MATK; settings: at 10 µM
T2 sequence (whole entry): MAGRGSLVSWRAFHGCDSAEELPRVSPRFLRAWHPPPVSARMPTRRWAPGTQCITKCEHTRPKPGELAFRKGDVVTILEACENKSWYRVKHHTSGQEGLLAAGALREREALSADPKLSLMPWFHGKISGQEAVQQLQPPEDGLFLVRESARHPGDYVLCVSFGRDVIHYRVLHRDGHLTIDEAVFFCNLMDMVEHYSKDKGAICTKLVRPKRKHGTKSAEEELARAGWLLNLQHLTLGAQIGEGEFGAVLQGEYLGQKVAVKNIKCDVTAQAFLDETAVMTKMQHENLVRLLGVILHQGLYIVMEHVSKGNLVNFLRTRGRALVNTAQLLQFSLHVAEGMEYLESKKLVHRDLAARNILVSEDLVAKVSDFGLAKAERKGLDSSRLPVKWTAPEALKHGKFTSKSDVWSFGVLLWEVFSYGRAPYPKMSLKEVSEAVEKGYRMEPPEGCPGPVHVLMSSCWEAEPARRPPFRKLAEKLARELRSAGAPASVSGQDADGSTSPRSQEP

[3] = target: Dual specificity mitogen-activated protein kinase kinase 2 (Homo sapiens) (UniProt P36507); assay: Selectivity interaction (ActivX KiNativ screen (kinase selectivity in THP-1 cell lysates)) EUB0000639a MAP2K2; format: subcellular; settings: lysate, at 0.01 µM
[4] = target: T3, Tyrosine-protein kinase JAK3 (Homo sapiens) (UniProt P52333); assay: Selectivity interaction (KinomeScan (DiscoverX)) EUB0000045b JAK3; settings: at 1 µM
T3 sequence (whole entry): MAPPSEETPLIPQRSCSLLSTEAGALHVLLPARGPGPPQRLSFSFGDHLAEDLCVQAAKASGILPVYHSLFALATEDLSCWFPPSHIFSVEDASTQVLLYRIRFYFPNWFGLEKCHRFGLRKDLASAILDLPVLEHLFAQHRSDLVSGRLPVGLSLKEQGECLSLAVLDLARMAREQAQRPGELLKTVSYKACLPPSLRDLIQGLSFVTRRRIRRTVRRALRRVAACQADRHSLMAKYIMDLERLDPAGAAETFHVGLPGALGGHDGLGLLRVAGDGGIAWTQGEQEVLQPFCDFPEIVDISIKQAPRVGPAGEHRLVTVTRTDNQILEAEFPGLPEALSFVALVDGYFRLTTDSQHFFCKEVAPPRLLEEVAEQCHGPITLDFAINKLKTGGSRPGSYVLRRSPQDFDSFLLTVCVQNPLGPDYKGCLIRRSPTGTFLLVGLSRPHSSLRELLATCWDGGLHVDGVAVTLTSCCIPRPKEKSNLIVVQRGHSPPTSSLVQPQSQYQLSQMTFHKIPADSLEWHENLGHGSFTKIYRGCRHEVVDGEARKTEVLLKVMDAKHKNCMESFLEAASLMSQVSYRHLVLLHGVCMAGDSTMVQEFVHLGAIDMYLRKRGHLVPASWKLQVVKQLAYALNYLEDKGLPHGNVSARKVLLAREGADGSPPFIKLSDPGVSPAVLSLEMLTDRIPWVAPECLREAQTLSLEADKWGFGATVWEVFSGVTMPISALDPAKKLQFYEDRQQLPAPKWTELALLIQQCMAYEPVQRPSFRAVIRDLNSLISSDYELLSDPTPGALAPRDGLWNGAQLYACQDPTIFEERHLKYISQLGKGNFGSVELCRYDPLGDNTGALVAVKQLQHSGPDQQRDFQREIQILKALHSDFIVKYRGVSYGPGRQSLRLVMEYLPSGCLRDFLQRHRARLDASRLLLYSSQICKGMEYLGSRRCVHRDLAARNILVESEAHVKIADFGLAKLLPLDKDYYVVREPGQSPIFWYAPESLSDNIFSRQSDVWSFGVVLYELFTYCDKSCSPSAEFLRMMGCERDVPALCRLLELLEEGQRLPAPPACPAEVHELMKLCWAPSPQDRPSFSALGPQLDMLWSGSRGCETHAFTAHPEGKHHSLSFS

[5] = target: Cyclin-dependent kinase 17 (Homo sapiens) (UniProt Q00537); assay: Selectivity interaction (KinomeScan (DiscoverX)) EUB0001619a CDK17; settings: at 1 µM
Chain of Cyclin-dependent kinase 17 (Homo sapiens) (Q00537 whole entry, looked up): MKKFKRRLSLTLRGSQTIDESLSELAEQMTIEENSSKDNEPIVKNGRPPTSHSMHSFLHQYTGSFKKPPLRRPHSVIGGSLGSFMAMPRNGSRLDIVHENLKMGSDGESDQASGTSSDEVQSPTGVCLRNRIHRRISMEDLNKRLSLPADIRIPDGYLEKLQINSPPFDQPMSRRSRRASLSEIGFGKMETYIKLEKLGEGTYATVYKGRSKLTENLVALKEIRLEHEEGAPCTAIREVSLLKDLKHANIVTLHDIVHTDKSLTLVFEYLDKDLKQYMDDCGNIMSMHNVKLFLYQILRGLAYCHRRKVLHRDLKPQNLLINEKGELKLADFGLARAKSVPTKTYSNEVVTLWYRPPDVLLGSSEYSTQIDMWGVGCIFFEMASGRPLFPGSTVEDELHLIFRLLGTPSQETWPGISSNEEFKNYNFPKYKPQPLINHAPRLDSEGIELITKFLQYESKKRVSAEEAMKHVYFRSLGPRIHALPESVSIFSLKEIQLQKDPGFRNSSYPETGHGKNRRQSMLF

Chain of Dual specificity mitogen-activated protein kinase kinase 2 (Homo sapiens) (P36507 whole entry): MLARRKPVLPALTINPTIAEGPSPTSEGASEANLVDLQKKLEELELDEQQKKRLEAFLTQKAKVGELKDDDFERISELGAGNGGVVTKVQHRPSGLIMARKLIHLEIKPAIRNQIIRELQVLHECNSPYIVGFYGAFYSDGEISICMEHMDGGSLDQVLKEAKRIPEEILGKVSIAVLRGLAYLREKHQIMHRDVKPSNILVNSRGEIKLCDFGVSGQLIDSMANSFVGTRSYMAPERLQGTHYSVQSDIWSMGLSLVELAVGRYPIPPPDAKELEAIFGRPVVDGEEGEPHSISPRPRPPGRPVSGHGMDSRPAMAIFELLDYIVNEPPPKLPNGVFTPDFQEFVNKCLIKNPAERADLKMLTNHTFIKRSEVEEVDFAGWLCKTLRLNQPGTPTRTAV

C=CC(=O)Nc1cccc(C(=O)Nc2ccc(Nc3cc(-c4[nH]c(SC)nc4C)ccn3)cc2)c1
% of control ([1]; at 1 µM): 93%
% of control ([1]; at 5 µM): 78%

O=C(NOC[C@H](O)CO)c1ccc(F)c(F)c1Nc1ccc(I)cc1F
% of control [2]: 100%

CC[C@@H]1[C@H](F)C(=O)N[C@@H]1COc1nccc2cc(C(N)=O)c(OC)cc12 [ZIMLOVISERTIB]
% of inhibition [3]: -2%

C=CC(=O)Nc1cc(-n2c(=O)ccc3cnc4ccc(-c5ccc(NS(C)(=O)=O)cc5)cc4c32)ccc1C
% of control [4]: 6.6%

N#Cc1cccc(-c2c[nH]c3ncnc(N4CCOCC4)c23)c1
% of control [5]: 100%
